pIC50: −log10 of the molar value.

This assay concerns P. falciparum 3D7 growth, pLDH absorbance. The experiment in a line: blood-stage malaria parasite growth potency – strain 3D7, dose response (AID 2305).
Turning to `Cc1cc(C)n(Cc2ccc(C(=O)NCC3CCCCC3)cc2)n1`, the pIC50 (in general, the IC50 on a negative log10 scale, so that one unit is a factor of ten) is 6.02.
Then `CCN(CC)CCNC(=O)c1ccc(NC(=O)c2cn(-c3ccccc3)nc2-c2cccs2)cc1`, with 6.59; and `COCCOc1ccc(Nc2nccc(-c3c(-c4cccc(NC(=O)c5c(F)cccc5F)c4)nn4ccccc34)n2)cc1F`, with 6.02; and `CC(C)C[C@@H](/C=N/N1CCOC1=O)NC(=O)[C@H](CC(C)C)NC(=O)c1ccc(F)cc1`, with 5.93.
Turning to `CN(C)CCNC(=O)c1ccc2c(c1)n(C1CCN(S(=O)(=O)c3ccc(-c4ccccc4)cc3)CC1)c(=O)n2CC1CCCCC1`, the pIC50 is 6.21.
`Cc1cc2c(cc1C(F)(F)F)N(C(=O)Nc1cc(OCCN(C)C)cc(C(F)(F)F)c1)CC2` had a pIC50 of 6.15.
On to `COc1ccc(C(C(=O)NC2CCN(C[C@H](O)c3ccnc4ccc(OC)cc34)CC2)N2CCN(Cc3ccccc3)CC2)cc1` (some centres undefined), for which the pIC50 was 6.82.
The result for `Oc1ccc(CN2CC[C@@H](N3CCN(CCc4ccccc4)CC3)[C@H](O)C2)cc1Cl` reads 6.06.
Then `COC(=O)c1cccc(OCCNC2CCN(C[C@H](O)c3ccnc4ccc(OC)cc34)CC2)c1`, with 6.47; and `O=C(N1CCN(c2cccc(C(F)(F)F)c2)CC1)C(Cl)(Cl)Cl`, with 6.05; and `O=C(Oc1ccc(C2CNCCc3c2cc(OC(=O)c2ccc(O)cc2)c(OC(=O)c2ccc(O)cc2)c3Cl)cc1)c1ccc(O)cc1` (centres undefined), with 6.01.
Then `CCc1ccc(CN2CCC(CN(c3ccc(N4CCOCC4)c(F)c3)S(=O)(=O)c3ccc(C(C)(C)CC)cc3)CC2)cc1`, with 6.15; and `COc1ccc(NC(=O)Nc2ccc(-c3ccncc3)c(Cl)c2)cc1N1CCN(C)CC1`, with 6.12; and `CCn1cc2c3c(cc(C(=O)N[C@@H](Cc4ccccc4)[C@H](O)CNC4CCOCC4)cc31)N(C)S(=O)(=O)CC2`, with 6.68.
In turn, `Cc1ccccc1NC(=O)NC1CCN(CCCCCNC(=O)/C=C/c2ccc(Cl)c(Cl)c2)CC1` gave a pIC50 of 6.11.
`CN1CCN(c2cc(NC(=O)Nc3ccc(-c4ccncc4)c(Cl)c3)ccc2Br)CC1` had a pIC50 of 6.05.
Consider `COc1ccc(-n2cc(C(=O)c3cc(Br)ccc3O)cc(C#N)c2=O)cc1Cl`, for which the pIC50 is 6.10.
`CC(C)NCc1cccc(-c2cccc(-c3nc4ccccc4[nH]3)c2)c1` gave a pIC50 of 6.10.
Consider `CS(=O)(=O)Nc1ccc2c(C3CCN(CCC4CCN(C(=O)/C=C/c5ccc(Cl)c(Cl)c5)CC4)CC3)c[nH]c2c1`, for which the pIC50 is 6.22.
The result for `Cc1ccc(-n2ncc(C(=O)Nc3cc(Cl)cc(Cl)c3)c2C2CCNCC2)cc1C` reads 6.26; that for `CCNc1cc(C(=O)N[C@@H](Cc2ccccc2)[C@H](O)CNC2(Cc3cccc(Cl)c3)CCC2)cc(N2CCCCS2(=O)=O)c1`, 5.93.
The result for `COc1ccc(-c2cccc(NC(=O)c3cccc(C#N)c3)c2)cc1CN1CCNCC1` reads 6.14.
The result for `Oc1ccc(CCNc2nc(NCc3ccccc3-c3cccc(Cl)c3)nc(N3CCNCC3)n2)cc1` reads 5.89.
`CCCNc1ccc(-c2cc(C(N)=O)c3[nH]cc(C4CCN(S(=O)(=O)CC)CC4)c3c2)cn1`: the pIC50 was 6.09.
`Cc1ccccc1C1CCN(C2CCC(NC(=O)/C=C/c3ccccc3C(F)(F)F)CC2)CC1` (centres undefined) showed a pIC50 of 5.85.
Then `CCCCCCN1CCCN(Cc2cccc(NC(=O)c3cc4ccccc4s3)c2)CC1`, with 6.18; and `CC(C)(C)SCC(O)Cn1c2ccc(Br)cc2c2cc(Br)ccc21` (centres undefined), with 6.00; and `Cc1ccc(CN2CCN(CC(O)COc3ccc4c(c3)CCC4)CC2)cc1` (centres undefined), with 6.07.
Turning to `CN(C)CCOc1cccc(NC(=O)Nc2ccc(-c3ccccc3)cc2)c1`, the pIC50 was 6.06.
The result for `COc1cc(C(=O)NC2CC(C)(C)N(C)C(C)(C)C2)ccc1-c1cc2cc(Cl)c(Cl)cc2[nH]1` reads 5.94; that for `O=C(Nc1ccc(NC2=NCCN2)cc1)c1ccc(C(=O)Nc2ccc(NC3=NCCN3)cc2)cc1`, 6.19.
`CC(Cc1ccc(Sc2ccccc2)cc1)NCC(O)c1cccc(C(F)(F)F)c1` (centres undefined): the pIC50 was 6.23.
The result for `CCN(CC)CCCC(C)Nc1ccnc2cc(C#N)ccc12` (centres undefined) reads 6.85; that for `O=C(NC1CC1)c1ccc(N2CCC(Cc3ccccc3)CC2)nc1`, 6.12; that for `CNCCNCc1cccc(-c2cccc(-c3nc4ccc(C(F)(F)F)cc4[nH]3)c2)c1`, 6.70.
Then `Cc1cc(N2CCOCC2)nc(Nc2ccc(NC(=O)c3cccc4ccccc34)cc2)n1`, with 5.89; and `Fc1cccc(COc2ccc(Nc3ncnc4sc(C#Cc5ncc[nH]5)cc34)cc2Cl)c1`, with 6.89; and `CC(=NNc1nc2ccccc2s1)c1ccccn1`, with 5.95.
Then `CCCC(C)Nc1nc(C)cc(N[C@@H](CC(C)C)C(=O)Nc2ccc(OC)cc2)n1` (some centres undefined), with 6.06; and `c1ccc(Oc2ccc(Nc3ccnc(Nc4ccc5cn[nH]c5c4)n3)cc2)cc1`, with 6.14.
`COc1ccc(Nc2ncc3c(-c4cccc(NC(=O)Cc5ccc(F)cc5)c4)c[nH]c3n2)cc1OC` showed a pIC50 of 6.23.
Consider `CC(=O)Nc1nc(C(=O)Nc2ccc(-c3cccc(-c4nc5ccc(F)cc5[nH]4)c3)cc2)cs1`, for which the pIC50 is 6.54.
The result for `CCCCOC(=O)[C@H](CCC)NC(=O)c1ccc(NS(=O)(=O)c2ccc3nc(N)[nH]c(=O)c3c2)cc1` reads 6.70; that for `C#CCNCc1ccc(-c2cccc(-c3nc4c(C)cccc4[nH]3)c2)cc1`, 6.09.
With `CCCCCOc1ccc(C(O)C(CN2CCCCC2)c2ccccc2)cc1` (centres undefined), the negative logarithm of the IC50 (pIC50) was 6.06.
The result for `CCCCCC(C)C(C)c1cc(O)c2c(c1)OC(C)(C)c1cnccc1-2` (centres undefined) reads 6.11.
The result for `CCNC(C)(C)CN(Cc1ccc(-c2ccc(C(F)(F)F)cc2)cc1)C(=O)Cn1c(SCc2ccc(F)cc2)nc(=O)c2c1CCC2` reads 6.00; that for `O=C(N[C@@H](CC1CCCCC1)C(=O)NC1CC1)c1ccc(O)c(-c2cccc(C(F)(F)F)c2)c1`, 6.11.
Then `O=C(Nc1cccc(-c2ccc(CN3CCCC3)cc2)c1)c1ccc(Cl)cc1`, with 6.37; and `O=C(N[C@@H](CC1CCCCC1)C(=O)NC1CCCc2ccccc21)c1ccc(O)c(-c2cccc([N+](=O)[O-])c2)c1` (some centres undefined), with 6.21.
The compound `O=C(C=Cc1ccc([N+](=O)[O-])cc1)N1CCC(CCN2CCC(c3c[nH]c4ccccc34)CC2)CC1` showed a pIC50 of 6.13.
In the case of `O=C(NC1CCC(N2CCN(c3cccc4[nH]ccc34)CC2)CC1)c1cc2cccnc2[nH]1` (centres undefined), the pIC50 was 6.31.
The result for `Cc1nc(-c2ccncc2)sc1C(=O)Nc1ccc(Cl)cc1C(=O)Nc1ccc(Cl)cc1` reads 6.12; that for `O=C(NCc1ccc(F)cc1)c1ccc(N2CCN(c3ccncc3)CC2)cn1`, 6.05.
The result for `CNC(=S)NN=C(C)c1ccccn1` reads 6.57; that for `Cc1nnc2c(NC(=O)NC3CCCC3)cc3cc(-c4ccc(CN5CCCCC5)cc4)ccc3n12`, 6.02; that for `COc1ccc2c(NN=Cc3ccccn3)ccnc2c1`, 6.43.
Then `CCN(CC)CCNc1c2ccc(Cl)cc2nc2ccc(OC)nc12`, with 6.13; and `CN1CCCN(Cc2ccc(-c3cccc(NC(=O)c4ccc(Cl)cc4)c3)cc2)CC1`, with 6.21; and `CNC(=O)c1cnc(Nc2ccc(OCC(O)CN(C)C)cc2)nc1Nc1cccc(OC)c1` (centres undefined), with 6.49.
On to `CCN(CC)CCN(Cc1ccc(-c2ccc(C(F)(F)F)cc2)cc1)C(=O)Cn1c(CCc2cccc(F)c2F)nc(=O)c2sccc21`, for which the pIC50 was 6.05.
`O=C(/C=C/c1ccc(Cl)c(Cl)c1)NCCCCCN1CCCN(C(=O)Nc2ccc([N+](=O)[O-])cc2)CC1` gave a pIC50 of 6.21.
In the case of `OC(CNc1ccnc(Nc2ccccc2)n1)c1cccc(C(F)(F)F)c1` (centres undefined), the pIC50 was 6.19.
The result for `Cc1cc(NC(=O)NCCN2CCC(NC(=O)c3cccc(Br)c3)C2)c2ccccc2n1` (centres undefined) reads 6.26; that for `Cn1cnc(CCNC(=O)c2ccc(-c3cccc(-c4nc5ccccc5[nH]4)c3)cc2)c1`, 5.96.
In turn, `Cc1ccc2[nH]c3c(NCCN(C)C)ncnc3c2c1` showed a negative logarithm of the IC50 (pIC50) of 6.08.
The result for `CN(C)CCOc1cc(NC(=O)Nc2ccc3c(c2)CCCC3=O)ccc1I` reads 6.03.
Then `COc1ccc(NC(=O)[C@H](CC(C)C)Nc2cc(C)nc(NCCc3cccs3)n2)cc1`, with 6.02.
Then `O=C(NC1CCN(Cc2ccccc2)CC1)c1ccc2c(=O)n(Cc3ccc(Cl)cc3)c(=S)[nH]c2c1`, with 6.00; and `COc1cc2c(cc1C(F)(F)F)N(C(=O)Nc1cc(F)cc(-c3cccnn3)c1)CC2`, with 6.57; and `O=C(N[C@H]1CCN(Cc2ccc(OCCN3CCCC3)c(Cl)c2)C1)c1ccc(Cl)c(Cl)c1`, with 6.04.
`CNCc1cccc2[nH]c(-c3ccc(Cc4cc(Cl)ccc4OCC(C)C)o3)nc12`: the negative logarithm of the IC50 (pIC50) is 6.05.
Then `O=S(=O)(Nc1cccc(CCN2CCC(N3CCCCC3)CC2)c1)c1ccc2c(c1)OCCO2`, with 5.91; and `N#Cc1nc2ccc(OCCN(Cc3ccccc3C(F)(F)F)c3ccc(C#N)c(C(F)(F)F)c3)cc2s1`, with 6.07; and `O=C(N[C@@H](Cc1ccccc1)C(=O)NC1CCCc2ccccc21)c1ccc(O)c(-c2cccc(C(F)(F)F)c2)c1` (some centres undefined), with 6.00.
The result for `Cc1nc(-c2cccc3c(NC(=O)N4CCc5cc6nccc(N7CCN(C)CC7)c6cc54)cccc23)no1` reads 6.12; that for `CC(=O)c1ccc(-c2cccc3c(CC(=O)Nc4ccc5nccc(N6CCN(C)CC6)c5c4)cccc23)cc1`, 6.30; that for `O=C(Nc1ccc(Cl)cc1)c1ccc(CN2CCCN(Cc3ccsc3)CC2)cc1`, 6.07.
Then `COc1ccc(-c2ccc(NC(=O)c3cccc(C#N)c3)cc2)cc1CN1CCNCC1`, with 6.14.
`CCCCCCN1CCCN(Cc2ccc(C(=O)Nc3ccc(C(C)(C)C)cc3)cc2)CC1` showed a pIC50 of 6.13.
The result for `O=C(c1ccc([N+](=O)[O-])o1)N1CCN(c2nc3c(Cl)cccc3s2)CC1` reads 6.01; that for `CC(Cc1ccc(NC(=O)c2ccc(CNCc3ccccc3)cc2)cc1)N(CCc1cccc(Cl)c1)C(=O)OC(C)(C)C` (centres undefined), 6.01; that for `CCc1cccc(-c2cc(=N)n(C)c3nc(N)[nH]c(=O)c23)c1`, 5.95.
The compound `NC(=O)c1cccc(Nc2nccc(Nc3ccc(Oc4ccc5ccccc5c4)cc3)n2)c1` had a pIC50 of 6.09.

These data come from PubChem BioAssay AID2305 (GlaxoSmithKline (GSK), 2010).
